The results in this text go back to US10351500B2, “Method of using of dihydro-resveratrol or its stilbenoid derivatives and/or chemical variants as antimicrobial agents” (Hong Kong Baptist University, priority 2015, dated 2019).

Structures are written as SMILES.

Assay [1] concerns PANC-1 human pancreatic ductal adenocarcinoma cells. The experiment in a line: cell migration assay, PANC-1. Particulars: PANC-1, 25 μM, 24-h treatment. The assay is classed as cell-based.
Assay [2] has as its system LTC-14 cells (pancreatic stellate cells). The experiment in a line: Western blotting of α-SMA and FN1 in TGF-β-challenged LTC-14 PSCs. It is filed as cell-based, rat. Here is the method:
LTC-14 cells were cultured at 37° C. under a humidified condition of 95% air and 5% CO2 in IMDM supplemented with 10% fetal bovine serum (FBS). Cells used in all the experiment were among passages 9 to 25. LTC-14 cells were seeded at a density of 1×10^5/well in a 12-well plate, and incubated with recombinant TGF-β at 5 ng/mL with dihydro-resveratrol at 0, 1, 5, 10 and 20 μg/mL in IMDM supplemented with 0.2% FBS for 24 hours. Cells were then harvested for protein extraction and Western blotting analysis or immunofluorescent staining.
Total proteins of the LTC-14 cells are extracted using RIPA lysis buffers containing protease inhibitors. Cell lysates were loaded and separated by SDS-polyacrylaminde gel electrophoresis. After wet electroblotting, proteins were transferred onto PVDF membranes (Bio-rad), blocked with 5% non-fat milk, probed with antibodies and visualized by utilization of an ECL kit (GE Healthcare).
Control was not treated with Resv or any stilbenoids. Total proteins were extracted and analyzed using Western blotting.
Total proteins were extracted and analyzed using Western blotting.
In general terms: A western blot detects proteins with antibodies after separation by electrophoresis.

Assay [3] relates to Trichophyton mentagrophytes. In words: anti-fungal growth inhibition, T. mentagrophytes. It is filed as cell-based. Particulars: Trichophyton mentagrophytes, 168 h.
Another assay has as its system Streptococcus mutans. In words: anti-bacterial growth inhibition, S. mutans. It is filed as cell-based. As to conditions: Streptococcus mutans, 10 h.
A further assay has as its system Streptococcus sobrinus. In words: anti-bacterial growth inhibition, S. sobrinus. Particulars: Streptococcus sobrinus, 10 h. The assay is classed as cell-based.
[4] abbreviates: read-out: Inhibition rate (25 μM).
Setting [5] is: read-out: Inhibition rate (50 μM).
Where [6] appears, read: read-out: Inhibition rate (100 μM).

For the compound `Oc1ccc(CCc2cc(O)cc(O)c2)cc1` [Dihydro-resveratrol, trans-3,5,4′-trihydroxybibenzyl], the migratory ability entry in assay [1] is given as “significant reduction in the migratory ability”. For the same compound, the “expression levels of α-SMA and FN1” value in assay [2] (rat PSCs upon challenge of TGF-β) is listed as “significantly attenuate”. For the same compound, the “anti-fibrotic effect in PSCs among the testing stilbenoids” value in assay [2] (rat PSCs, TGF-β) is listed as “most potent anti-fibrotic effect”. Besides, the inhibition (in general, the share of the control response that was lost under treatment) at 25 µM in assay [3] (setting [4]) is 4.52%; with Streptococcus mutans (setting [4]), 6.32%; with Streptococcus sobrinus (setting [4]), 10.7%. Further, the inhibition at 50 µM worked out at 15.3% in assay [3] (setting [5]), 2.34% in the assay on Streptococcus mutans (setting [5]) and 8.18% in the assay with Streptococcus sobrinus (setting [5]). Also, the inhibition at 100 µM in assay [3] (setting [6]) was found to be 30.8%; in the assay with Streptococcus mutans (setting [6]), 2.09%; in the assay with Streptococcus sobrinus (setting [6]), 1.49%.
